In PubChem BioAssay AID2060487 (Molecular Pharmacology Branch, DTP, NCI, 2025):

System: 997537-175-T-J1-PDC complex spheroid viability
Assay: Anticancer human tumor 997537-175-T-J1-PDC patient-derived colon adenocarcinoma cell line growth inhibition [GQUAD]
Conditions: for IC50: curve of first compound; for viability, T/C: stronger effect = lower value
How it was run: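 Multi-cell-type spheroids of tumor cells with HUVEC and mesenchymal stem cells, treated with drug combinations. Concentrations descend in half-log steps from near clinical Cmax, or from 10 microM where Cmax is unknown; viability read-out.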

[1] = second compound 0.0316 µM, first compound 0.0316 µM
[2] = second compound 0.0316 µM, first compound 0.316 µM
[3] = second compound 0.1 µM, first compound 0.0316 µM
[4] = second compound 0.1 µM, first compound 0.316 µM
[5] = second compound 0.316 µM, first compound 0.0316 µM
[6] = second compound 0.316 µM, first compound 0.316 µM
[7] = second compound 1 µM, first compound 0.0316 µM
[8] = second compound 1 µM, first compound 0.316 µM
[9] = second compound 3.16 µM, first compound 0.0316 µM
[10] = second compound 3.16 µM, first compound 0.316 µM
[11] = second compound 10 µM, first compound 0.0316 µM
[12] = second compound 10 µM, first compound 0.316 µM
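Further: spheroids exposed to the agents for 7 days.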
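Wherever viability, T/C is given: 100% = DMSO vehicle control viability.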

**Q.** How did the IC50 (second compound 0.0316 µM) turn out when `Cc1cccc(N(C)C(=O)C2C(O)CCN2c2nc(C)cc(C(F)(F)F)c2C#N)c1` (centres undefined) + Cc1cnc(CNC(=O)c2c(=O)c3ccc(N4CCCN(C)CC4)nc3n3c2sc2ccccc23)cn1 was run?
**A.** Its IC50 is over 10 µM.

**Q.** And the IC50 (second compound 0.1 µM)?
**A.** Its IC50 is over 10 µM.

**Q.** What about the IC50 (second compound 0.316 µM) of the same compound?
**A.** The IC50 was over 10 µM.

**Q.** And the IC50 (second compound 1 µM)?
**A.** Its IC50 is over 10 µM.

**Q.** And the IC50 (second compound 3.16 µM)?
**A.** The IC50 was over 10 µM.

**Q.** And the IC50 (second compound 10 µM)?
**A.** The IC50 was over 10 µM.

**Q.** What about the viability, T/C [1] of the same compound?
**A.** Its viability, T/C is 82.4%.

**Q.** And the viability, T/C (second compound 0.0316 µM, first compound 0.1 µM)?
**A.** The viability, T/C was 80.5%.

**Q.** And the viability, T/C [2]?
**A.** Its viability, T/C is 89.2%.

**Q.** What about the viability, T/C (second compound 0.0316 µM, first compound 1 µM) of the same compound?
**A.** The viability, T/C was 97.2%.

**Q.** And the viability, T/C (second compound 0.0316 µM, first compound 3.16 µM)?
**A.** Its viability, T/C is 82.3%.

**Q.** And the viability, T/C (second compound 0.0316 µM, first compound 10 µM)?
**A.** Its viability, T/C is 98.5%.

**Q.** What about the viability, T/C [3] of the same compound?
**A.** The viability, T/C was 102%.

**Q.** What about the viability, T/C (second compound 0.1 µM, first compound 0.1 µM) of the same compound?
**A.** Its viability, T/C is 94.2%.

**Q.** And the viability, T/C [4]?
**A.** Its viability, T/C is 94.2%.

**Q.** And the viability, T/C (second compound 0.1 µM, first compound 1 µM)?
**A.** Its viability, T/C is 67%.

**Q.** What about the viability, T/C (second compound 0.1 µM, first compound 3.16 µM) of the same compound?
**A.** Its viability, T/C is 88.6%.

**Q.** What about the viability, T/C (second compound 0.1 µM, first compound 10 µM) of the same compound?
**A.** The viability, T/C was 92.4%.

**Q.** What about the viability, T/C [5] of the same compound?
**A.** The viability, T/C was 93.7%.

**Q.** What about the viability, T/C (second compound 0.316 µM, first compound 0.1 µM) of the same compound?
**A.** Its viability, T/C is 75.2%.

**Q.** And the viability, T/C [6]?
**A.** The viability, T/C was 99.5%.

**Q.** What about the viability, T/C (second compound 0.316 µM, first compound 1 µM) of the same compound?
**A.** The viability, T/C was 73.8%.

**Q.** And the viability, T/C (second compound 0.316 µM, first compound 3.16 µM)?
**A.** Its viability, T/C is 112%.

**Q.** And the viability, T/C (second compound 0.316 µM, first compound 10 µM)?
**A.** The viability, T/C was 84.3%.

**Q.** And the viability, T/C [7]?
**A.** The viability, T/C was 94.6%.

**Q.** And the viability, T/C (second compound 1 µM, first compound 0.1 µM)?
**A.** The viability, T/C was 98.5%.

**Q.** And the viability, T/C [8]?
**A.** Its viability, T/C is 87.8%.

**Q.** And the viability, T/C (second compound 1 µM, first compound 1 µM)?
**A.** The viability, T/C was 88.4%.

**Q.** What about the viability, T/C (second compound 1 µM, first compound 3.16 µM) of the same compound?
**A.** The viability, T/C was 106%.

**Q.** What about the viability, T/C (second compound 1 µM, first compound 10 µM) of the same compound?
**A.** The viability, T/C was 99.7%.

**Q.** And the viability, T/C [9]?
**A.** The viability, T/C was 77.3%.

**Q.** What about the viability, T/C (second compound 3.16 µM, first compound 0.1 µM) of the same compound?
**A.** Its viability, T/C is 103%.

**Q.** What about the viability, T/C [10] of the same compound?
**A.** The viability, T/C was 96%.

**Q.** What about the viability, T/C (second compound 3.16 µM, first compound 1 µM) of the same compound?
**A.** Its viability, T/C is 93.4%.

**Q.** What about the viability, T/C (second compound 3.16 µM, first compound 3.16 µM) of the same compound?
**A.** Its viability, T/C is 107%.

**Q.** And the viability, T/C (second compound 3.16 µM, first compound 10 µM)?
**A.** Its viability, T/C is 87.7%.

**Q.** What about the viability, T/C [11] of the same compound?
**A.** Its viability, T/C is 85.1%.

**Q.** And the viability, T/C (second compound 10 µM, first compound 0.1 µM)?
**A.** The viability, T/C was 114%.

**Q.** And the viability, T/C [12]?
**A.** Its viability, T/C is 98.3%.

**Q.** What about the viability, T/C (second compound 10 µM, first compound 1 µM) of the same compound?
**A.** The viability, T/C was 95%.

**Q.** And the viability, T/C (second compound 10 µM, first compound 3.16 µM)?
**A.** Its viability, T/C is 96.9%.

**Q.** And the viability, T/C (second compound 10 µM, first compound 10 µM)?
**A.** The viability, T/C was 86.7%.

**Q.** With `Cn1ncnc1[C@H]1c2n[nH]c(=O)c3cc(F)cc(c23)N[C@@H]1c1ccc(F)cc1` + Cc1cnc(CNC(=O)c2c(=O)c3ccc(N4CCCN(C)CC4)nc3n3c2sc2ccccc23)cn1 as the compound, how does the IC50 (second compound 0.0316 µM) read?
**A.** Its IC50 is over 0.316 µM.

**Q.** What about the IC50 (second compound 0.1 µM) of the same compound?
**A.** The IC50 was over 0.316 µM.

**Q.** What about the IC50 (second compound 0.316 µM) of the same compound?
**A.** Its IC50 is over 0.316 µM.

**Q.** What about the IC50 (second compound 1 µM) of the same compound?
**A.** The IC50 was over 0.316 µM.

**Q.** What about the IC50 (second compound 3.16 µM) of the same compound?
**A.** Its IC50 is over 0.316 µM.

**Q.** And the IC50 (second compound 10 µM)?
**A.** Its IC50 is over 0.316 µM.

**Q.** And the viability, T/C (second compound 0.0316 µM, first compound 0.000999 µM)?
**A.** The viability, T/C was 96.5%.

**Q.** And the viability, T/C (second compound 0.0316 µM, first compound 0.00316 µM)?
**A.** The viability, T/C was 90.8%.

**Q.** And the viability, T/C (second compound 0.0316 µM, first compound 0.00999 µM)?
**A.** Its viability, T/C is 90.8%.

**Q.** And the viability, T/C [1]?
**A.** The viability, T/C was 86.6%.

**Q.** And the viability, T/C (second compound 0.0316 µM, first compound 0.0999 µM)?
**A.** Its viability, T/C is 76.9%.

**Q.** And the viability, T/C [2]?
**A.** The viability, T/C was 87.4%.

**Q.** And the viability, T/C (second compound 0.1 µM, first compound 0.000999 µM)?
**A.** Its viability, T/C is 106%.

**Q.** What about the viability, T/C (second compound 0.1 µM, first compound 0.00316 µM) of the same compound?
**A.** Its viability, T/C is 79.2%.

**Q.** And the viability, T/C (second compound 0.1 µM, first compound 0.00999 µM)?
**A.** Its viability, T/C is 106%.

**Q.** And the viability, T/C [3]?
**A.** The viability, T/C was 52.1%.

**Q.** What about the viability, T/C (second compound 0.1 µM, first compound 0.0999 µM) of the same compound?
**A.** The viability, T/C was 89.6%.

**Q.** And the viability, T/C [4]?
**A.** The viability, T/C was 85%.

**Q.** And the viability, T/C (second compound 0.316 µM, first compound 0.000999 µM)?
**A.** Its viability, T/C is 107%.

**Q.** And the viability, T/C (second compound 0.316 µM, first compound 0.00316 µM)?
**A.** The viability, T/C was 93.8%.

**Q.** What about the viability, T/C (second compound 0.316 µM, first compound 0.00999 µM) of the same compound?
**A.** Its viability, T/C is 86.4%.

**Q.** What about the viability, T/C [5] of the same compound?
**A.** Its viability, T/C is 80.8%.

**Q.** What about the viability, T/C (second compound 0.316 µM, first compound 0.0999 µM) of the same compound?
**A.** The viability, T/C was 98.7%.

**Q.** And the viability, T/C [6]?
**A.** The viability, T/C was 85.5%.

**Q.** What about the viability, T/C (second compound 1 µM, first compound 0.000999 µM) of the same compound?
**A.** The viability, T/C was 89.4%.

**Q.** And the viability, T/C (second compound 1 µM, first compound 0.00316 µM)?
**A.** The viability, T/C was 89.9%.

**Q.** And the viability, T/C (second compound 1 µM, first compound 0.00999 µM)?
**A.** Its viability, T/C is 94.4%.

**Q.** What about the viability, T/C [7] of the same compound?
**A.** The viability, T/C was 116%.

**Q.** What about the viability, T/C (second compound 1 µM, first compound 0.0999 µM) of the same compound?
**A.** Its viability, T/C is 95%.

**Q.** What about the viability, T/C [8] of the same compound?
**A.** Its viability, T/C is 108%.

**Q.** And the viability, T/C (second compound 3.16 µM, first compound 0.000999 µM)?
**A.** The viability, T/C was 104%.

**Q.** And the viability, T/C (second compound 3.16 µM, first compound 0.00316 µM)?
**A.** Its viability, T/C is 86.9%.

**Q.** And the viability, T/C (second compound 3.16 µM, first compound 0.00999 µM)?
**A.** The viability, T/C was 96.2%.

**Q.** What about the viability, T/C [9] of the same compound?
**A.** Its viability, T/C is 100%.

**Q.** What about the viability, T/C (second compound 3.16 µM, first compound 0.0999 µM) of the same compound?
**A.** Its viability, T/C is 94.4%.

**Q.** And the viability, T/C [10]?
**A.** Its viability, T/C is 106%.

**Q.** What about the viability, T/C (second compound 10 µM, first compound 0.000999 µM) of the same compound?
**A.** Its viability, T/C is 87.2%.

**Q.** What about the viability, T/C (second compound 10 µM, first compound 0.00316 µM) of the same compound?
**A.** Its viability, T/C is 98.9%.

**Q.** What about the viability, T/C (second compound 10 µM, first compound 0.00999 µM) of the same compound?
**A.** Its viability, T/C is 97.7%.

**Q.** And the viability, T/C [11]?
**A.** The viability, T/C was 103%.

**Q.** And the viability, T/C (second compound 10 µM, first compound 0.0999 µM)?
**A.** The viability, T/C was 96.4%.

**Q.** What about the viability, T/C [12] of the same compound?
**A.** The viability, T/C was 98.3%.
